Experimental data from paper PMC5218472 (PLoS Biology, 2017).
Each block holds one compound with its values, some of them ahead of it. Residues, ends and D or L forms follow the SMILES beside them. No end group written: not given here. *: point of attachment. X1 = CC(=O)N[C@@H]1[C@@H](O)[C@H](O[C@@H]2O[C@H](CO)[C@@H](O[C@@H]3O[C@H](CO[C@H]4O[C@H](CO)[C@@H](O)[C@H](O)[C@@H]4O[C@@H]4O[C@H](CO)[C@@H](O[C@@H]5O[C@H](CO)[C@H](O)[C@H](O)[C@H]5O)[C@H](O)[C@H]4NC(C)=O)[C@@H](O)[C@H](O[C@H]4O[C@H](CO)[C@@H](O)[C@H](O)[C@@H]4O[C@@H]4O[C@H](CO)[C@@H](O[C@@H]5O[C@H](CO)[C@H](O)[C@H](O)[C@H]5O)[C@H](O)[C@H]4NC(C)=O)[C@@H]3O)[C@H](O)[C@H]2NC(C)=O)[C@@H](CO)O[C@H]1N*; αGalNAc = CC(=O)N[C@@H]1[C@@H](O)[C@@H](O)[C@@H](CO)O[C@@H]1*

What was measured:
[1] = In vitro cleavage assay of IL-6R (glyco)peptides with recombinant ADAM17; conditions: human, isolated enzyme; 50 μM peptide, 25 mM Hepes pH 9.0, recombinant catalytic domain of ADAM17, 16 h, 37°C, reverse phase C18 chromatography, peak areas; mean of 3 independent experiments; read-out: intact peptide after incubation with ADAM17 (untreated peptide = 100), mean
Description: (§1) Fig 7 The N- and O-glycosylated sequon adjacent to the cleavage site is of minor importance for IL-6R cleavage. (A) Amino-acid sequence of the two unglycosylated peptides 1(QD) and 2(QA). Peptides were incubated either with or without recombinant ADAM17 for 16 h at 37°C, and the amount of cleaved peptide was analyzed by reversed-phase (RP) chromatography. (B) Amino-acid sequence of the two glycopeptides 3(QD) and 4(QA), which have a GlcNAc attached to the amino-acid residue corresponding to Asn-350 of the IL-6R. Cleavage was determined as described in panel (A). (C) Amino-acid sequence of the two glycopeptides 5(QD) and 6(QA), which have a biantennary N-glycan attached to the amino-acid residue corresponding to Asn-350 of the IL-6R. Cleavage was determined as described in panel (A). (D) Amino-acid sequence of the two glycopeptides 7(QD) and 8(QA), which have a GalNAc attached to the amino-acid residue corresponding toThr-352 of the IL-6R. Cleavage was determined as described in panel (A). (E) Amino-acid sequence of the two glycopeptides 9(QD) and 10(QA), which have a biantennary N-glycan attached to the amino-acid residue corresponding to Asn-350 and a GalNAc attached to the amino-acid residue corresponding toThr-352 of the IL-6R. Cleavage was determined as described in panel (A). All data shown are the mean ± SD from three independent experiments (*p < 0.05, **p < 0.01, ***p < 0.001, compared to the untreated peptide; ^§p < 0.05, compared to the cleaved nonglycosylated peptide).
(§2) Two 1.5 ml reaction tubes were filled with 50 μl peptide (50 μM) solved in 25 mM Hepes (pH 9.0), and 0.5 μl of the recombinant catalytic domain of ADAM17 was added to one of the reaction tubes, whereas the other sample remained untreated. All samples were incubated for 16 h at 37°C. Afterwards, 1,150 μl 0.1% TFA was added to each sample, and the peptides were separated on a reverse phase chromatography column (Multo High Bio-200-C18) from Chromatographie Service (Langerwehe, Germany) using a linear gradient elution with a binary solvent system and a flow rate of 1 ml/min. Solvent A consisted of 0.1% TFA, and solvent B consisted of 100% ACN. After peak integration, peak areas for cleaved and noncleaved peptides were determined.

[2] = target: T1, recombinant catalytic domain of ADAM17 (Homo sapiens, UniProt P78536); assay: as above; conditions: 50 μM peptide, 25 mM Hepes pH 9.0, 16 h, 37°C, RP chromatography
T1 construct: catalytic domain (aa Pro-18 to Val-477) of ADAM17; purchased Enzo Life Sciences GmbH (Lörrach, Germany)
Description: as §1, §2

ADAM17 = system: T2, ADAM17; assay: as above; conditions: human, isolated enzyme, pH 9
T2 construct: catalytic domain (aa Pro-18 to Val-477) of ADAM17; purchased Enzo Life Sciences GmbH (Lörrach, Germany)
Description: as §1, §2

[3] = system: Ba/F3-gp130-hIL-6R-4N cells; assay: Proliferation in response to IL-6 or Hyper-IL-6 (S6D Fig); type: cell-based; conditions: highest value = 100, mean of n = 3
From the text: (§3) In order to analyze a functional role for the determined glycans, we created IL-6R mutants that lacked either one, multiple, or all N-glycosylation sites and stably transduced Ba/F3-gp130 cells with these. […] When we analyzed IL-6-dependent proliferation of the individual cell lines, we could not detect a difference between the wild-type IL-6R (Fig 4K), IL-6R mutants lacking one of the five N-glycosylation sites (Fig 6A–6E), IL-6R mutants lacking two (termed 2N), three (3N), or four N-glycosylation sites (4N, S6B–S6D Fig), or the IL-6R mutant that lacked all five N-glycans (5N, Fig 6F). Similarly, mutation of the O-glycosylation site on Thr-352 had no influence on IL-6 signaling (Fig 6G).
(§4) Proliferation of the different Ba/F3-gp130-IL-6R cell lines in response to IL-6 and Hyper-IL-6 and of Ba/F3-gp130 cells in response to IL-6 and the two different recombinant sIL-6R variants was determined using the Cell Titer Blue Cell viability assay reagent (Promega, Karlsruhe, Germany), following the manufacturer’s protocol as described previously. Values were measured in triplicates per experiment, and relative light units (RLU) obtained after 60 min were normalized by subtraction of control values obtained after 0 min. The maximum proliferation was set to 100%, and all other values were calculated accordingly.
(§5) Supplementary file pbio.2000080.s006.tif: S6 Fig Cell-surface expression and signaling capacity of different N-glycan mutants. (A) Cell-surface expression of the IL-6R on the individual Ba/F3-gp130-IL-6R cell lines. The stably transduced IL-6R mutant is indicated above the histogram. Staining is shown in color, whereas the control staining is shown in gray. One out of three experiments with similar outcome is shown. (B-D) Equal numbers of cells of the indicated Ba/F3-gp130-hIL-6R cell line were incubated for 48 h with increasing amounts (0–100 ng/ml) of either IL-6 or Hyper-IL-6. One representative experiment out of three performed is shown (mean ± SD, biological triplicates). (TIF) Click here for additional data file.

[4] = system: Ba/F3-gp130-IL-6R_DG cells; assay: Proliferation in response to IL-6 or Hyper-IL-6 (S4H Fig); type: cell-based; conditions: highest value = 100, mean of n = 3
Description: as §4
Supplementary file pbio.2000080.s004.tif: S4 Fig Mutation of Val-356 is sufficient to block ADAM10-mediated proteolysis of the IL-6R and the Asp358Ala variant. (A) HEK293 cells were transiently transfected with Expression plasmids encoding the wildtype IL-6R (PV) or the double mutants (IE, DG) as indicated. Cells were either treated with 1 μM ionomycin for 1 h or DMSO as vehicle control. sIL-6R was precipitated from the supernatant with concanavalin A-covered Sepharose beads, and cells were lysed. Both were analyzed via Western blot, and β-actin served as loading control. One out of three experiments with similar outcome is shown. (B, C) The experiment was performed as described under (A), but sIL-6R generation was analyzed via ELISA. In (B), the amount of sIL-6R generated after ionomycin-stimulation of the wildtype IL-6R (PV) was set to 100%, and all other values were calculated accordingly. In (C), the amount of sIL-6R without stimulation was considered as constitutive shedding and set to 1 and the increase of sIL-6R was calculated. Data shown are the mean ± SD from at least three independent experiments (*p<0.05, ns = no significant difference). (D-F) HEK293 cells were transiently transfected with expression plasmids encoding the wildtype IL-6R (PV) or the single mutants (DV, IV, PE, PG) as indicated. The experiments were performed as described in (A) to (C). (G) ADAM10-mediated proteolysis of the IL-6R variants depicted in Fig 4I was analyzed as described in (B). (H) Equal numbers of Ba/F3-gp130-IL-6R_DG cells were incubated for 48 h with increasing amounts (0–100 ng/ml) of either IL-6 or Hyper-IL-6. One representative experiment out of three performed is shown (mean ± SD, biological triplicates). (TIF) Click here for additional data file.

[5] = system: Ba/F3-gp130-hIL-6R 2N cells; assay: Proliferation in response to IL-6 or Hyper-IL-6 (S6B Fig); type: cell-based; conditions: highest value = 100, mean of n = 3
From the text: as §3, §4, §5

[6] = system: Ba/F3-gp130-hIL-6R 3N cells; assay: Proliferation in response to IL-6 or Hyper-IL-6 (S6C Fig); type: cell-based; conditions: highest value = 100, mean of n = 3
From the text: as §3, §4, §5

[7] = system: recombinant catalytic domain of ADAM17; assay: recombinant catalytic domain of ADAM17 in 25 mM Hepes (pH 9.0); conditions: 37°C, up to 16 h

T1 sequence (P78536 18-477): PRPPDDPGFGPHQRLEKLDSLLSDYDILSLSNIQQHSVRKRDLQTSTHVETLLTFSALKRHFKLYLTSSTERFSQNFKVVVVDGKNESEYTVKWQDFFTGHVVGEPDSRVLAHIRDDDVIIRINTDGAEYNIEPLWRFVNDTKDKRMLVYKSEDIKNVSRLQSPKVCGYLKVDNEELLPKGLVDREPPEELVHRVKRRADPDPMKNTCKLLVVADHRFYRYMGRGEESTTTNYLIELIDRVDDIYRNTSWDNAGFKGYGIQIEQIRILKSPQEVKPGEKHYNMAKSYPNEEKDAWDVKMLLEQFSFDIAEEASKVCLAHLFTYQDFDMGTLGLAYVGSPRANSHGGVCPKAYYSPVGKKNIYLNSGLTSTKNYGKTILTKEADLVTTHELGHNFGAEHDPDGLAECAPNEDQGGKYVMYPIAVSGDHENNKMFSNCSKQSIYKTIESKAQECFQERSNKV

Compound: CC[C@H](C)[C@H](NC(=O)[C@@H](N)CC(N)=O)C(=O)N[C@@H](CC(C)C)C(=O)N[C@@H](Cc1ccccc1)C(=O)N[C@@H](CCCNC(=N)N)C(=O)N[C@@H](CC(=O)O)C(=O)N[C@@H](CO)C(=O)N[C@@H](C)C(=O)N[C@@H](CC(=O)N[C@@H]1O[C@H](CO)[C@@H](O[C@@H]2O[C@H](CO)[C@@H](O[C@@H]3O[C@H](CO[C@H]4O[C@H](CO)[C@@H](O)[C@H](O)[C@@H]4O[C@@H]4O[C@H](CO)[C@@H](O[C@@H]5O[C@H](CO)[C@H](O)[C@H](O)[C@H]5O)[C@H](O)[C@H]4NC(C)=O)[C@@H](O)[C@H](O[C@H]4O[C@H](CO)[C@@H](O)[C@H](O)[C@@H]4O[C@@H]4O[C@H](CO)[C@@H](O[C@@H]5O[C@H](CO)[C@H](O)[C@H](O)[C@H]5O)[C@H](O)[C@H]4NC(C)=O)[C@@H]3O)[C@H](O)[C@H]2NC(C)=O)[C@H](O)[C@H]1NC(C)=O)C(=O)N[C@@H](C)C(=O)N[C@H](C(=O)N[C@@H](CO)C(=O)N[C@@H](CC(C)C)C(=O)N1CCC[C@H]1C(=O)N[C@H](C(=O)N[C@@H](CCC(N)=O)C(=O)N[C@@H](CC(=O)O)C(=O)N[C@@H](CO)C(=O)N[C@@H](CO)C(=O)N[C@@H](CO)C(=O)N[C@H](C(=O)N1CCC[C@H]1C(=O)N[C@@H](CC(C)C)C(=O)N1CCC[C@H]1C(=O)O)C(C)C)C(C)C)[C@@H](C)O [5(QD)] (H-NILFRDSAD(X1)ATSLPVQDSSSVPLP-OH; N-terminus and C-terminus assumed)
remaining at 16 h [1]: 102%
cleavage by recombinant ADAM17, in words [2]: blocked cleavage

remaining at 16 h, 50 μM (ADAM17): 10.8%
Compound: CC[C@H](C)[C@H](NC(=O)[C@@H](N)CC(N)=O)C(=O)N[C@@H](CC(C)C)C(=O)N[C@@H](Cc1ccccc1)C(=O)N[C@@H](CCCNC(=N)N)C(=O)N[C@@H](CC(=O)O)C(=O)N[C@@H](CO)C(=O)N[C@@H](C)C(=O)N[C@@H](CC(N)=O)C(=O)N[C@@H](C)C(=O)N[C@H](C(=O)N[C@@H](CO)C(=O)N[C@@H](CC(C)C)C(=O)N1CCC[C@H]1C(=O)N[C@H](C(=O)N[C@@H](CCC(N)=O)C(=O)N[C@@H](C)C(=O)N[C@@H](CO)C(=O)N[C@@H](CO)C(=O)N[C@@H](CO)C(=O)N[C@H](C(=O)N1CCC[C@H]1C(=O)N[C@@H](CC(C)C)C(=O)N1CCC[C@H]1C(=O)O)C(C)C)C(C)C)[C@@H](C)O[C@H]1O[C@H](CO)[C@H](O)[C@H](O)[C@H]1NC(C)=O [8(QA)] (H-NILFRDSANAT(αGalNAc)SLPVQASSSVPLP-OH)

Compound: IL-6: recombinant human interleukin-6
proliferation, Figure S6D, mean ([3]; cytokine 0.001 ng/ml): 7.259
proliferation, Figure S6D, mean ([3]; cytokine 0.01 ng/ml): 22.724
proliferation, Figure S6D, mean ([3]; cytokine 0.1 ng/ml): 61.9479
proliferation, Figure S6D, mean ([3]; cytokine 1 ng/ml): 88.3209
proliferation, Figure S6D, mean ([3]; cytokine 10 ng/ml): 84.8559
proliferation, Figure S6D, mean ([3]; cytokine 100 ng/ml): 63.7775
proliferation, Figure S4H, mean ([4]; cytokine 0.001 ng/ml): 4.604
proliferation, Figure S4H, mean ([4]; cytokine 0.01 ng/ml): 11.7535
proliferation, Figure S4H, mean ([4]; cytokine 0.1 ng/ml): 45.6464
proliferation, Figure S4H, mean ([4]; cytokine 1 ng/ml): 77.0141
proliferation, Figure S4H, mean ([4]; cytokine 10 ng/ml): 92.624
proliferation, Figure S4H, mean ([4]; cytokine 100 ng/ml): 70.8452
proliferation, Figure S6B, mean ([5]; cytokine 0.001 ng/ml): 10.1623
proliferation, Figure S6B, mean ([5]; cytokine 0.01 ng/ml): 21.276
proliferation, Figure S6B, mean ([5]; cytokine 0.1 ng/ml): 41.189
proliferation, Figure S6B, mean ([5]; cytokine 1 ng/ml): 78.0666
proliferation, Figure S6B, mean ([5]; cytokine 10 ng/ml): 86.7819
proliferation, Figure S6B, mean ([5]; cytokine 100 ng/ml): 79.1326
proliferation, Figure S6C, mean ([6]; cytokine 0.001 ng/ml): 8.138
proliferation, Figure S6C, mean ([6]; cytokine 0.01 ng/ml): 15.3684
proliferation, Figure S6C, mean ([6]; cytokine 0.1 ng/ml): 39.4534
proliferation, Figure S6C, mean ([6]; cytokine 1 ng/ml): 92.5489
proliferation, Figure S6C, mean ([6]; cytokine 10 ng/ml): 89.1651
proliferation, Figure S6C, mean ([6]; cytokine 100 ng/ml): 87.3482

remaining at 16 h, 50 μM (ADAM17): 0.93%
Compound: NILFRDSANATSLPVQASSSVPLP [2(QA)]

remaining at 16 h, 50 μM (ADAM17): 86%
Compound: NILFRDSANATSLPVQDSSSVPLP [1(QD)]

not cleaved [7]: 91.4% ± 9.4% intact after 16 h
Compound: NILFRDSANATSLPVQDSSSVPLP [3(QD)]

Compound: NILFRDSANATSLPVQDSSSVPLP [5(QD)]
not cleaved [7]: cleavage blocked; mean 101.852% intact after 16 h

not cleaved [7]: 91% ± 8% after 16 h
Compound: NILFRDSANATSLPVQDSSSVPLP [7(QD)]

Compound: NILFRDSANATSLPVQDSSSVPLP [9(QD)]
not cleaved [7]: cleavage blocked; mean 95.585% intact after 16 h
